Experimental findings from US10676492B2, “Branched amphiphilic lipids” (UNIVERSITÉ DE BRETAGNE OCCIDENTALE, priority 2015, dated 2020) are described below.

The nature of data set [1]: Structural organisation study via 31P NMR (Hahn echo) of hydrated lipids. As to conditions: hydrated medium, ambient temperature. It counts as physicochemical. How it is done: A stock solution of a cationic lipid is prepared in the chloroform. A volume of stock solution corresponding to a weight in lipids between 50 mg and 100 mg is pipette into a haemolysis tube and the chloroform is evaporated under of flow of N2 in such a way as to obtain a lipid film. 500 μL of water is then added and the mixture is subjected to ultrasound until complete dispersion of the lipid film. The mixture is lysed for one night. A volume of distilled water is then added in order to obtain a solution with a concentration of 100 mg·mL^−1. In order to ensure the balance of the sample, three cycles −198° C./50° C. are carried out: the sample is placed at −198° C. (liquid nitrogen) for 5 min, then the sample is placed in a water bath at 50° C. for 30 min and is vortexed.
The NMR ^31P spectra were acquired with a Hahn echo sequence (90°-τ-180°-τ-acq). The acquisition parameters were as follows: spectral window of 200 KHz, a pulse π/2 with a duration of […], a recycling period of 5 s and an echo period of 40 μs. The number of acquisitions depends on the volume of the sample and the acquisition temperature, and is between 128 and 1700 scans. The temperature of the sample is balanced for 30 min before the start of the acquisition. Lorentzian noise is filtered over the entire spectral window before the Fourier transform on the top of the echo. […]

Data set [2] can be described thus: Measurement of the size and zeta potential of liposomes (Zetasizer Nano ZS). It counts as physicochemical. As to conditions: liposomal solution in water, 25° C. How it is done:
The cationic lipids were formulated in a liposomal solution by the method of hydration of a lipid film. Initially, a fraction of a concentrated solution of the cationic lipid is placed in a glass tube and evaporated to give a thin lipid film. 1 mL of water is then added to the film and the film is hydrated for 3 days at 4° C. The solution is then vortexed (1 min) and placed under ultrasound (30 to 60 min) at 45 kHz. Then 150 μL of the liposomal solution is diluted in 1.5 mL of sterile water. After filtration ([…]) of the liposomal solution, the size and the zeta potential of liposomes and lipoplexes are determined.
The size and zeta potential (ξ) of the liposomes and of the lipoplexes were measured with a Zetasizer Nano ZS (Malvern Instruments) at 25° C. after a suitable dilution of the formulations. For the measurements of the lipoplexes, each test used […] of plasmid DNA in water with the required amount of cationic lipid studied in order to form lipoplexes with charge ratios ranging from 0.5 to 8.0. For the measurements of the liposomes, a quantity of lipid equivalent to a mixture having a 1.0 charge ratio in water was used.

The structures appear in SMILES notation.

For the molecule `CCCCCCCC/C=C/CCCCCCCCOP(=O)(NCC[N+](C)(C)C)OCCCCCCCC/C=C/CCCCCCCC.[I-]` [Compound I-1], the “structure of the supramolecular aggregates (self-organisation)” value in data set [1] is on record as “lamellar form”. In data set [2], the PdI was found to be 0.26, the “Size (nm)” value came out at 94 nm and the “Zeta Potential (mV)” value was “+54 mV”.
